What all share (type): cell-based, mouse
In data set [1] the test system is UB/OC-1 cells. The data set is described as follows: Cell viability by MTS assay (CellTiter 96 AQueous One Solution Cell Proliferation Assay), with and without cisplatin-induced damage. The following applies: 24 hours. The method, then:
In the examples described herein, UB/OC-1 cells, or immortalized organ of Corti cells derived from the mouse, were utilized to examine the activity of NPD1 in the context of ototoxic damage. […] The cultures were kept at 33° C. in an incubator with 10% CO2. […] In brief, 3,500 cells per well were seeded into a 96-well plate. […] NPD1 treatment of 1-100 nM concentrations was tested in 3 independent experiments. A cell proliferation assay was performed by using Cell-Titer 96® AQueous One Solution Cell Proliferation Assay Kit (Promega, Madison, Wis.), according to the manufacturer's instructions. After 24 hours, 20 μl of CellTiter 96 AQueous One Solution reagent was added to each well in 100 μl of total volume of media. Cells were incubated for 3 to 4 hours, and absorbance was recorded at 490 nm using an ELISA plate reader. The absorbance is directly proportional to the number of living cells and is expressed as a percent relative to vehicle-treated cells.

The test system of data set [2] is reactive oxygen species (ROS) in UB/OC-1 cells. As to the kind of experiment: ROS generation by CellROX green staining, confocal imaging. The method, then: The cultures were kept at 33° C. in an incubator with 10% CO2. UB/OC1 cells were cultured on glass coverslips in 12-well culture plates. […] The cells were then washed once with phosphate buffered saline (PBS), and fixed in 4% paraformaldehyde for 15 minutes. The coverslips were then mounted with DAPI containing Vectashield (Vector Labs, Burlingame, Calif.).

The test system of another data set is TRPV-1. The data set is described as follows: Immunofluorescence staining of stress and inflammatory markers: TRPV-1. The method, then: (§1) The cultures were kept at 33° C. in an incubator with 10% CO2. Detection of stress and inflammatory markers in UB/OC-1 cells was performed by immunofluorescence staining. UB/OC-1 cells were first plated in a 12 well plate. […] After the treatment, the cells were fixed with 4% paraformaldehyde (Sigma, St. Louis, Mo.), followed by washing once with phosphate buffered saline (PBS). Coverslips were then incubated with solution A—5% donkey serum (Jackson Immuno Laboratories, West Grove, Pa.) and 0.5% Triton-X (Sigma, St. Louis, Mo.) in PBS for 30 min at room temperature. Double immunostaining for different markers NOX3, iNOS, TRPV1 or TNF-α (1:300 dilution) in solution A was performed overnight at 4° C. Secondary antibody mix was then added and incubated for 1 h at 37° C. After 3 washes with PBS and two washes with fresh distilled water the coverslips were mounted on glass slides using Vectashield mounting medium containing DAPI (Vector Laboratories, Inc. Burlingame, Calif.) for nuclear staining, before imaging under an LEICA confocal microscope (Buffalo Grove, Ill.).

For another data set, the system named is TNFα. As to the kind of experiment: Immunofluorescence staining of stress and inflammatory markers: TNFα. The method, then:
as §1

The next data set relates to NOX3. As to the kind of experiment: Immunofluorescence staining of stress and inflammatory markers: NOX3. The method, then:
as §1

A further data set concerns iNOS. As to the kind of experiment: Immunofluorescence staining of stress and inflammatory markers: iNOS. Here is the method:
as §1

The nature of data set [3]: Cell survival by FITC-AnnexinV/propidium iodide apoptosis detection, flow cytometry. The following applies: mouse, no cisplatin; for viability at 1 nM: NPD1 1 nM alone; for viability at 10 nM: NPD1 10 nM alone; for viability at 100 nM: NPD1 100 nM alone. The method, then: (§2) The cultures were kept at 33° C. in an incubator with 10% CO2. Cell survival after NPD1 treatment was also analyzed in UB/OC-1 cells in the presence or absence of damage. Specifically, cell death via apoptosis was determined by using FITC-AnnexinV Apoptosis detection kit (BD Pharmingen, San Diego, Calif., USA) and quantified by flow cytometry. In brief, 3,500 UB/OC-1 cells per well were seeded into a 96-well plate. […] At the end of the treatment time, UB/OC-1 cells were washed once with phosphate buffered saline (PBS) and harvested in a 0.5% trypsin/EDTA solution at 37° C., centrifuged at 220×g for 5 min and then immediately resuspended in the physiological buffer provided in the kit. […] The results were quantified using the CellQuest software (BD Biosciences, San Jose, Calif.). Data are expressed as percent viable (non-apoptotic cells) with the number of cells seeded into each well used as 100%. Three independent experiments were performed.
For orientation: In flow cytometry, cells or beads pass a laser one at a time.

For data set [4], the system named is UB/OC-1 cells. The data set is described as above. The following applies: for viability at 0.001 µM / viability at 0.01 µM / viability at 0.1 µM: Mus musculus. Here is the method:
as §2

Where [5] appears, read: cisplatin only 2.5 μM, 24 hours.
Setting [6] is: average of three experiments, read-out: Cell Viability Avg.
Setting [7] is: read-out: Set II Cell Viability.
Setting [8] is: read-out: Set III Cell Viability.
Setting [9] is: NPD1 (1, 10, 100 nM; particularly at 10 nM) 30 minutes, then cisplatin 2.5 μM 24 hours.
The mark [10] stands for this setting: NPD1 at 1 nM, 10 nM and 100 nM 30 minutes, then cisplatin 2.5 μM 24 hours.

Each structure is given as a SMILES string. Like-named read-outs stand apart in the source and are kept apart here.

The term viability denotes a per cent measure of how many cells are alive, often set against a control.

Regarding `N.N.[Cl][Pt][Cl]` [cisplatin, reference compound], the cell viability entry with UB/OC-1 cells [1] (cisplatin 20 μM alone) is given as “reduced cell viability”. The ROS staining entry in data set [2] (cisplatin 2.5 μM alone, 30 minutes) was “ROS staining in the cytoplasm of the cell”. The TRPV-1 staining entry in the data set on TRPV-1 (setting [5]) is “increased staining”. Besides, the TNFα staining result in the data set on TNFα (setting [5]) is “increased staining”. Besides, the NOX3 staining result in the data set with NOX3 (setting [5]) is given as “increased staining”. Further, in the data set on iNOS (setting [5]), the iNOS staining entry was “increased staining”.

Turning to `CC/C=C\C[C@H](O)\C=C/C=C/C=C/[C@H](O)C/C=C\C/C=C\CCC(=O)[O-].[Na+]` [NPD1, Sodium (4Z,7Z,10R,11E,13E,15Z,17S,19Z)-10,17-dihydroxydocosa-4,7,11,13,15,19-hexaenoate], the cell viability entry was “over 95%” in the data set on UB/OC-1 cells [1] (NPD1 1 nM-100 nM with cisplatin 20 μM, percent relative to vehicle-treated cells) and “over 80%” in the data set on UB/OC-1 cells [1] (NPD1 at all tested concentrations (1 pM-100 nM) with cisplatin 20 μM, percent relative to vehicle-treated cells). For the same compound, the viability at 1 nM in data set [3] (setting [6]) is 96.8%; in data set [3] (read-out: Set I Cell Viability), 96%; in data set [3] (setting [7]), 96%; in data set [3] (setting [8]), 98.5%. In addition, the viability at 10 nM is 96.9% in data set [3] (setting [6]), 96% in data set [3] (read-out: Set I Cell Viability), 97% in data set [3] (setting [7]) and 97.7% in data set [3] (setting [8]). For the same compound, the viability at 100 nM in data set [3] (setting [6]) came out at 96.2%; in data set [3] (read-out: Set I Cell Viability), 91%; in data set [3] (setting [7]), 98%; in data set [3] (setting [8]) it was 99.5%. Moreover, the viability at 0.001 µM in the data set with UB/OC-1 cells [4] (read-out: Cell Viability Avg., NPD1 1 nM, 30 minutes later cisplatin 20 μM for 24 h, average of three experiments) was 87.6%; in the data set on UB/OC-1 cells [4] (read-out: Set I Cell Viability, NPD1 1 nM, 30 minutes later cisplatin 20 μM for 24 h) it was 85%; in the data set on UB/OC-1 cells [4] (read-out: Set II Cell Viability, NPD1 1 nM, 30 minutes later cisplatin 20 μM for 24 h) it was 83%; with UB/OC-1 cells [4] (read-out: Set III Cell Viability, NPD1 1 nM, 30 minutes later cisplatin 20 μM for 24 h), 94.9%. Further, the viability at 0.01 µM in the data set on UB/OC-1 cells [4] (read-out: Cell Viability Avg., NPD1 10 nM, 30 minutes later cisplatin 20 μM for 24 h, average of three experiments) stood at 88.8%; in the data set on UB/OC-1 cells [4] (read-out: Set I Cell Viability, NPD1 10 nM, 30 minutes later cisplatin 20 μM for 24 h), 84%; with UB/OC-1 cells [4] (read-out: Set II Cell Viability, NPD1 10 nM, 30 minutes later cisplatin 20 μM for 24 h), 86%; in the data set on UB/OC-1 cells [4] (read-out: Set III Cell Viability, NPD1 10 nM, 30 minutes later cisplatin 20 μM for 24 h), 96.5%. Besides, the viability at 0.1 µM in the data set with UB/OC-1 cells [4] (read-out: Cell Viability Avg., NPD1 100 nM, 30 minutes later cisplatin 20 μM for 24 h, average of three experiments) was 89.2%; in the data set with UB/OC-1 cells [4] (read-out: Set I Cell Viability, NPD1 100 nM, 30 minutes later cisplatin 20 μM for 24 h), 90%; in the data set with UB/OC-1 cells [4] (read-out: Set II Cell Viability, NPD1 100 nM, 30 minutes later cisplatin 20 μM for 24 h), 80%; in the data set with UB/OC-1 cells [4] (read-out: Set III Cell Viability, NPD1 100 nM, 30 minutes later cisplatin 20 μM for 24 h), 97.6%. Besides, in the data set with UB/OC-1 cells [4] (NPD1 treatment in cisplatin-induced damaged cells), the cell survival entry is “over 96%”. The ROS staining result in data set [2] (NPD1 1 nM and 10 nM pre-treatment 30 minutes, then cisplatin 2.5 μM 30 minutes) was “decreased ROS staining”; in data set [2] (NPD1 alone, no cisplatin), “very little or no ROS staining”. The “TRPV-1 expression (staining)” value with TRPV-1 (setting [9]) is “decrease”. In addition, the “TNFα expression (staining)” value in the data set on TNFα (setting [9]) is recorded as “decrease”. The “NOX3 expression (staining)” value in the data set with NOX3 (setting [10]) is given as “significant decrease”. For the same compound, in the data set on iNOS (setting [10]), the “iNOS expression (staining)” value is given as “significant decrease”.

The values above are taken from patent USRE48077E1, “Methods of treating ototoxicity” (Anida Pharma Inc., priority 2013, dated 2020).
